Assay [1] has as its target human activated kallikrein enzyme (Homo sapiens, UniProt P03952). Description: Inhibition of activated plasma kallikrein, fluorogenic peptide substrate (PFR-AMC) assay, 500 pM enzyme format. The assay is classed as biochemical. As to conditions: 500 pM activated kallikrein, 300 uM PFR-AMC, 30 min preincubation, 10 min reaction, room temperature; read-out: Primary Dose Response Assay: Average EC50. Here is the method: Compounds were evaluated for inhibition of the human activated kallikrein enzyme in two formats of an assay employing a fluorogenic peptide substrate. In one assay format, the concentrations of reagents were as follows: 20 mM Tris pH 7.5, 1 mM EDTA, 150 mM sodium chloride, 0.1% PEG-400, 0.1% Triton X-100, 500 pM activated kallikrein enzyme, 300 uM Pro-Phe-Arg-7-amido-4-methylcoumarin (PFR-AMC) substrate. Prior to reaction initiation with substrate, enzyme and inhibitors were preincubated for 30 min at room temperature. After initiation with substrate, reactions were incubated for 10 min at room temperature and fluorescence emission at 460 nm from 380 nm excitation measured with a microplate reader. In another assay format, the concentrations of reagents were as follows: 20 mM Tris pH 7.5, 1 mM EDTA, 150 mM sodium chloride, 0.1% PEG-400, 0.1% Triton X-100, 5 pM activated kallikrein enzyme, 300 uM PFR-AMC substrate. Prior to reaction initiation with substrate, enzyme and inhibitors were preincubated for 30 min at room temperature. After initiation with substrate, reactions were incubated for 18 hr at room temperature and fluorescence emission at 460 nm from 380 nm excitation measured with a microplate reader.
Table 6 provides the results of the assay in the format with 500 pM activated kallikrein assay.

For another assay, the target named is T1, plasma kallikrein (Homo sapiens, UniProt P03952).
T1 construct: from tissue; host or cells: sodium citrate collected human plasma (78% final)
Description: Neat human plasma assay: contact pathway-activated (FXIIa) plasma, PFR-AMC substrate. The assay is classed as biochemical. Particulars: citrated human plasma (78% final), 10 nM human FXIIa, 100 μM PFR-AMC, room temperature. Here is the method:
To analyze inhibition of plasma kallikrein in an ex vivo setting, the potency of compounds was measure in contact pathway-activated plasma assays. In a fluorogenic peptide substrate assay, test compounds dissolved in DMSO were added to sodium citrate collected human or rat plasma in a 96-well microplate. Alternatively, citrated plasma was collected from rats administered the compounds orally or by IV. 10 nM of human FXIIa (Enzyme Research Laboratories) diluted in pKal buffer (20 mM Tris-HCl, pH 7.5, 150 mM NaCl, 1 mM EDTA, 0.1% PEG-8000, and 0.1% Triton X-100) was added to the plasma, followed by the 100 μM of the profluorescent, synthetic plasma kallikrein substrate PFR-AMC (also diluted in pKal buffer). Final plasma concentration in the reaction was 78%. Fluorescence was immediately monitored by excitation/emission wavelengths of 360 nm/480 nm respectively over a period of 5 minutes in a microplate reader. The resulting linear increase in fluorescence emission (reflecting pKal proteolysis of PFR-AMC substrate) was fit to extract a proteolytic rate (fluorescent units over time), and this rate was subsequently plotted against compound inhibitor concentration. Resulting plots were fit to a standard 4-parameter IC50/IC90 equation to determine min/max values, IC50/90, and slope. All experimental steps were performed at room temperature.

Broadly, the EC50 is the concentration that produces a half-maximal response. One may read the IC90 as the point of the concentration-response curve where the effect stands at 90%. Low readings indicate an effect from little substance, high ones a need for much substance.

human activated kallikrein enzyme, sequence (P03952 391-638 limits assumed): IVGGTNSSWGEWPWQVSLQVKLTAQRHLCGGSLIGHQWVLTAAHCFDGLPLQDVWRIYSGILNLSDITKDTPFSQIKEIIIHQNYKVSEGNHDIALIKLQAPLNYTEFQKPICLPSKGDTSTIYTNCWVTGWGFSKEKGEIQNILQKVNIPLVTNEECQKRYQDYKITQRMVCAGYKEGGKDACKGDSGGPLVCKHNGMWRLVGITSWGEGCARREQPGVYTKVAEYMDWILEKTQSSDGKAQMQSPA
human activated kallikrein enzyme, sequence (P03952 20-390 partner limits assumed): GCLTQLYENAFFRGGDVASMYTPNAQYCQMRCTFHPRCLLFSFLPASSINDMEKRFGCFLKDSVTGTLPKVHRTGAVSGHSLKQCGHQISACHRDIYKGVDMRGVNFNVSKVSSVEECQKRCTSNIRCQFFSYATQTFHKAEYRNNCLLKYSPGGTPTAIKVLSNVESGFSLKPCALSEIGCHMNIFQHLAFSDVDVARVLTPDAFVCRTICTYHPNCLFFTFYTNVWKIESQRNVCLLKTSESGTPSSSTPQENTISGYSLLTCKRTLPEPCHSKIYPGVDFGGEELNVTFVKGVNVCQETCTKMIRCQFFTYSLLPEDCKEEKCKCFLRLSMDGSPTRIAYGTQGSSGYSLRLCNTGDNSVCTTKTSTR
T1 sequence (P03952 391-638 limits assumed): as the sequence (P03952 391-638 limits assumed) above
T1 sequence (P03952 20-390 partner limits assumed): as the sequence (P03952 20-390 partner limits assumed) above

Consider `Cc1ccnc([C@H]2C[C@@H]2c2cc(NCC(C)(C)O)c3ccc(NCc4cn5cc(C6CC6)cc(N6CC(=O)N(C)C6=O)c5n4)cc3n2)n1` [Example 38, 1-(6-cyclopropyl-2-(((4-((2-hydroxy-2-methylpropyl)amino)-2-((1S,2S)-2-(4-methylpyrimidin-2-yl)cyclopropyl)quinolin-7-yl)amino)methyl)imidazo[1,2-a]pyridin-8-yl)-3-methylimidazolidine-2,4-dione], for which, in assay [1], the EC50 is at most 1 nM. Besides, the IC90 on plasma kallikrein was at most 400 nM.

On to `Cc1ccnc([C@H]2C[C@@H]2c2cc(OC3CCN(C)CC3)c3ccc(NCc4cn5cc(C6CC6)cc(N6CC(=O)N(C)C6=O)c5n4)cc3n2)n1` (racemic) [Example 35, rac-1-(6-cyclopropyl-2-(((4-((1-methylpiperidin-4-yl)oxy)-2-((1S*,2S*)-2-(4-methylpyrimidin-2-yl)cyclopropyl)quinolin-7-yl)amino)methyl)imidazo[1,2-a]pyridin-8-yl)-3-methylimidazolidine-2,4-dione], for which the EC50 in assay [1] was at most 1 nM. Also, the IC90 at plasma kallikrein is at most 400 nM.

Consider `Cc1ccnc([C@H]2C[C@@H]2C2=CS(=O)(=O)c3cnc(NCc4cn5cc(C6CC6)cc(N6CC(=O)N(C)C6=O)c5n4)cc3N2)n1` (racemic) [Example 79, rac-1-(6-cyclopropyl-2-(((2-((1S*,2S*)-2-(4-methylpyrimidin-2-yl)cyclopropyl)-4,4-dioxido-1H-pyrido[3,4-b][1,4]thiazin-7-yl)amino)methyl)imidazo[1,2-a]pyridin-8-yl)-3-methylimidazolidine-2,4-dione], for which the EC50 in assay [1] was at most 1 nM. At plasma kallikrein, this compound showed an IC90 of at most 400 nM.

Consider `Cc1ccnc([C@H]2C[C@@H]2c2cc(CO)c3ccc(NCc4cn5cc(C6CC6)cc(N6CC(=O)N(C)C6=O)c5n4)cc3n2)n1` (racemic) [Example 77, rac-1-(6-cyclopropyl-2-(((4-(hydroxymethyl)-2-((1S*,2S*)-2-(4-methylpyrimidin-2-yl)cyclopropyl)quinolin-7-yl)amino)methyl)imidazo[1,2-a]pyridin-8-yl)-3-methylimidazolidine-2,4-dione], for which the EC50 in assay [1] was at most 1 nM. Besides, on plasma kallikrein, the IC90 lay within 400 to 1500 nM.

As to `Cc1ccnc([C@H]2C[C@@H]2C2=NS(=O)(=O)c3ccc(N(C)Cc4cn5cc(C6CC6)ccc5n4)cc3N2)n1` (racemic) [Example 80, rac-6-(((6-cyclopropylimidazo[1,2-a]pyridin-2-yl)methyl)(methyl)amino)-3-((1S*,2S*)-2-(4-methylpyrimidin-2-yl)cyclopropyl)-4H-benzo[e][1,2,4]thiadiazine 1,1-dioxide], the EC50 in assay [1] was at most 1 nM. Besides, the IC90 at plasma kallikrein lay in the range of 1500 to 10000 nM.

On to `Cc1ccnc([C@H]2C[C@@H]2C2=NS(=O)(=O)c3ccc(NCc4cn5cc(C6CC6)cc(F)c5n4)cc3N2)n1` [Example 105, 6-(((6-cyclopropyl-8-fluoroimidazo[1,2-a]pyridin-2-yl)methyl)amino)-3-((1S,2S)-2-(4-methylpyrimidin-2-yl)cyclopropyl)-4H-benzo[e][1,2,4]thiadiazine 1,1-dioxide], for which, in assay [1], the EC50 is at most 1 nM. The IC90 against plasma kallikrein is at most 400 nM.

On to `Cc1ccnc([C@H]2C[C@@H]2C2=NS(=O)(=O)c3ccc(NCc4cn5cc(C6CC6)ccc5n4)cc3N2)n1` (racemic) [Example 64, rac-6-(((6-cyclopropylimidazo[1,2-a]pyridin-2-yl)methyl)amino)-3-((1S*,2S*)-2-(4-methylpyrimidin-2-yl)cyclopropyl)-4H-benzo[e][1,2,4]thiadiazine 1,1-dioxide], for which, in assay [1], the EC50 is at most 1 nM. For the same compound, the IC90 at plasma kallikrein lay within 400 to 1500 nM.

On to `Cc1ccnc([C@H]2C[C@@H]2c2cc(N3CCS(=O)(=O)CC3)c3ccc(NCc4cn5cc(C6CC6)cc(N6CC(=O)N(C)C6=O)c5n4)cc3n2)n1` [Example 37, 1-(6-cyclopropyl-2-(((4-(1,1-dioxidothiomorpholino)-2-((1S,2S)-2-(4-methylpyrimidin-2-yl)cyclopropyl)quinolin-7-yl)amino)methyl)imidazo[1,2-a]pyridin-8-yl)-3-methylimidazolidine-2,4-dione], for which the EC50 in assay [1] is at most 1 nM. This compound also showed an IC90 at plasma kallikrein of at most 400 nM.

For `COc1cc([C@H]2C[C@@H]2c2nccc(C)n2)nc2cc(NCc3cn4cc(C5CC5)ccc4n3)ccc12` (racemic) [Example 20, rac-N-((6-cyclopropylimidazo[1,2-a]pyridin-2-yl)methyl)-4-methoxy-2-((1S*,2S*)-2-(4-methylpyrimidin-2-yl)cyclopropyl)quinolin-7-amine], the EC50 in assay [1] is 1 to 10 nM. Further, the IC90 on plasma kallikrein fell in the range of 10000 to 22000 nM.

`Cc1ccnc([C@H]2C[C@@H]2c2cc(N3CC(O)C3)c3ccc(NCc4cn5cc(C6CC6)cc(N6CC(=O)N(C)C6=O)c5n4)cc3n2)n1` [Example 31, 1-(6-cyclopropyl-2-(((4-(3-hydroxyazetidin-1-yl)-2-((1S,2S)-2-(4-methylpyrimidin-2-yl)cyclopropyl)quinolin-7-yl)amino)methyl)imidazo[1,2-a]pyridin-8-yl)-3-methylimidazolidine-2,4-dione]: the EC50 in assay [1] was at most 1 nM. The compound also registered an IC90 at plasma kallikrein of at most 400 nM.

As for `COc1cc(NCc2cn3cc(C4CC4)cc(N4CC(=O)N(C)C4=O)c3n2)cc2nc([C@H]3C[C@@H]3c3nccc(C)n3)ccc12` [Example 28, 1-(6-cyclopropyl-2-(((5-methoxy-2-((1S,2S)-2-(4-methylpyrimidin-2-yl)cyclopropyl)quinolin-7-yl)amino)methyl)imidazo[1,2-a]pyridin-8-yl)-3-methylimidazolidine-2,4-dione], the EC50 in assay [1] was at most 1 nM. The compound further showed an IC90 on plasma kallikrein of 400 to 1500 nM.

As to `Cc1ccnc([C@H]2C[C@@H]2c2ccc3ncc(NCc4cn5cc(C6CC6)cc(N6CC(=O)N(C)C6=O)c5n4)cc3n2)n1` (racemic) [Example 14, rac-1-(6-cyclopropyl-2-(((6-((1S*,2S*)-2-(4-methylpyrimidin-2-yl)cyclopropyl)-1,5-naphthyridin-3-yl)amino)methyl)imidazo[1,2-a]pyridin-8-yl)-3-methylimidazolidine-2,4-dione], the EC50 in assay [1] fell in the range of 1 to 10 nM. This compound also displayed an IC90 on plasma kallikrein of 1500 to 10000 nM.

Consider `Cc1ccnc([C@H]2C[C@@H]2c2nc3cc(NCc4cn5cc(C6CC6)cc(N6CC(=O)N(C)C6=O)c5n4)cnc3c(=O)[nH]2)n1` (racemic) [Example 9, rac-1-(6-cyclopropyl-2-(((2-((1S*,2S*)-2-(4-methylpyrimidin-2-yl)cyclopropyl)-4-oxo-3,4-dihydropyrido[3,2-d]pyrimidin-7-yl)amino)methyl)imidazo[1,2-a]pyridin-8-yl)-3-methylimidazolidine-2,4-dione], for which, in assay [1], the EC50 is at most 1 nM. The same compound came in with an IC90 on plasma kallikrein of 1500 to 10000 nM.

Regarding `Cc1ccnc([C@H]2C[C@@H]2C2=NS(=O)(=O)c3ccc(NC(C)c4cn5cc(C6CC6)ccc5n4)cc3N2)n1` (stereo partly drawn) [Example 87, 6-((1-(6-cyclopropylimidazo[1,2-a]pyridin-2-yl)ethyl)amino)-3-((1S,2S)-2-(4-methylpyrimidin-2-yl)cyclopropyl)-4H-benzo[e][1,2,4]thiadiazine 1,1-dioxide], in assay [1], the EC50 is at most 1 nM. Besides, the IC90 against plasma kallikrein was in the range of 400 to 1500 nM.

As for `Cc1ccnc([C@H]2C[C@@H]2c2cc(N3CCOCC3)c3ccc(NCc4cn5cc(C6CC6)cc(N6CC(=O)N(C)C6=O)c5n4)cc3n2)n1` (racemic) [Example 40, rac-1-(6-cyclopropyl-2-((1S*,2S)-2-(4-methylpyrimidin-2-yl)cyclopropyl)-4-morpholinoquinolin-7-yl)amino)methyl)imidazo[1,2-a]pyridin-8-yl)-3-methylimidazolidine-2,4-dione], in assay [1], the EC50 was at most 1 nM. The compound also had an IC90 on plasma kallikrein of at most 400 nM.

`Cc1ccnc([C@H]2C[C@@H]2c2ccc3ccc(NCc4cn5cc(C6CC6)nc(N6CC(=O)N(C)C6=O)c5n4)cc3n2)n1` (racemic) [Example 106, rac-1-(6-cyclopropyl-2-(((2-((1S*,2S*)-2-(4-methylpyrimidin-2-yl)cyclopropyl)quinolin-7-yl)amino)methyl)imidazo[1,2-a]pyrazin-8-yl)-3-methylimidazolidine-2,4-dione]: the EC50 in assay [1] was in the range of 1 to 10 nM. In addition, the IC90 against plasma kallikrein was 1500 to 10000 nM.
